Measurements published in US8188059B2, “Compounds and methods for modulating expression of GCGR” (Isis Pharmaceuticals, Inc., priority 2006, dated 2012).
Strand notation (5' to 3'): a small letter for the sugar, then the base; units joined by * are phosphorothioate-linked, units joined directly phosphodiester-linked; [ ] holds rarer units or linkages, { } end groups; capitals alone tell only the bases. e = 2'-O-(2-methoxyethyl) (MOE); k = constrained ethyl (cEt); [5mC] = 5-methylcytosine; d = 2'-deoxy (DNA)

Key:
monkey GCGR mRNA = assay: Antisense inhibition of GCGR in primary monkey hepatocytes, 25-200 nM (Example 21, Table 80); type: cell-based; conditions: relative to untreated control cells
Experimental: Additional short antisense compounds targeted to a GCGR nucleic acid were tested for their effects on monkey GCGR mRNA in vitro. Cultured primary monkey hepatocytes were treated as described herein with 25, 50, 100 or 200 nM of short antisense compound. After the treatment period, RNA was isolated from the cells and GCGR mRNA levels were measured by quantitative real-time PCR, as described herein. GCGR mRNA levels were adjusted according to total RNA content as measured by RIBOGREEN®. Results are presented in Table 80 as percent reduction in GCGR mRNA, relative to untreated control cells.

GCGR mRNA = assay: Antisense inhibition of GCGR in HepG2 cells, 25-200 nM (Example 21, Table 79); type: cell-based, human; conditions: for percent reduction in GCGR mRNA: HepG2 cells, relative to untreated control cells
Experimental: Short antisense compounds targeted to a GCGR nucleic acid were tested for their effects on GCGR mRNA in vitro.
Cultured HepG2 cells at a density of 10000 cells per well in a 96-well plate were treated as described herein with 25, 50, 100 or 200 nM of antisense oligonucleotide. After the treatment period, RNA was isolated from the cells and GCGR mRNA levels were measured by quantitative real-time PCR, as described herein. GCGR mRNA levels were adjusted according to total RNA content as measured by RIBOGREEN®. Results are presented as percent reduction in GCGR mRNA, relative to untreated control cells.

mouse SGLT2 mRNA [1] = assay: Mouse SGLT2 mRNA levels in kidney, additional 1-10-1 and 2-8-2 MOE gapmers, Balb/c mice (Example 15, Table 68); type: in vivo
Experimental: 1-10-1 and 2-8-2 MOE gapmer short antisense compounds were designed to target different regions of the mouse SGLT2 RNA but have complementarity across species. […] All cytidine residues are 5-methylcytidines.
The short antisense compounds were analyzed for their effect on mouse SGLT2 mRNA levels in vivo. Data was taken from three experiments in which male 6-week old Balb/c mice were dosed twice per week for three weeks with 0.5, 0.1, or 0.02 umol/kg of either a 1-10-1 or 2-8-2 MOE gapmer given by intraperitoneal injection. Mice were sacrificed 48 hours following last administration and evaluated for SGLT2 levels in kidney. Target levels were determined by RT, real-time PCR as described by other examples herein. PCR results were normalized to an internal ISIS control.

mouse SGLT2 mRNA [2] = assay: Mouse SGLT2 mRNA levels in kidney, MOE versus Methyleneoxy BNA gapmers, Balb/c mice (Example 15, Table 69); type: in vivo
Experimental: The effect of ISIS 379692 1-10-1 MOE gapmer and ISIS 388625 2-8-2 MOE gapmer are compared with the effect of ISIS 392170 1-10-1 Methyleneoxy BNA Gapmer and ISIS 392173 2-8-2 Methyleneoxy BNA Gapmer (see Table 69) on mouse SGLT2 mRNA levels in vivo. Data are taken from three experiments in which male 6-week old Balb/c mice were dosed twice per week for three weeks with 5, 25 and 125 nmol/kg of either the ISIS 379692 1-10-1 MOE gapmer or the ISIS 388625 2-8-2 MOE gapmer given by intraperitoneal injection. Mice were sacrificed 48 hours following last administration and evaluated for SGLT2 mRNA levels in kidney. Target levels were determined by RT, real-time PCR as described by other examples herein. PCR results were normalized to an internal ISIS control. The data are expressed as percent change (“+” indicates an increase, “−” indicates a decrease) relative to saline treated animals and are illustrated in Table 69.

rat SGLT2 mRNA [3] = assay: Rat SGLT2 mRNA levels in kidney, 1-10-1 gapmers at 250 nmol/kg, Sprague-Dawley rats (Example 14, Table 66); type: in vivo; conditions: 250 nmol/kg i.p. twice per week for three weeks; Sprague-Dawley rats; kidney
Experimental: The effect of the above 1-10-1gapmers (see Table 64 above) on rat SGLT2 mRNA levels. Data are taken from four experiments in which male Sprague-Dawley rats (170-200 g) were dosed twice per week for three weeks with 250 nmol/kg given by intraperitoneal injection. Rats were sacrificed 48 hours following last administration and evaluated for SGLT2 mRNA levels in kidney. Target levels were determined by RT, real-time PCR as described by other examples herein. PCR results were normalized to an internal ISIS control.

rat SGLT2 mRNA [4] = assay: Rat SGLT2 mRNA levels in kidney, 1-10-1 and 1-10-2 MOE gapmers, Sprague-Dawley rats (Example 13, Table 63); type: in vivo
Description: 1-10-1 and 1-10-2 MOE gapmer antisense compounds, provided in Table 62, were designed to target different regions of the mouse or rat SGLT2 RNA. All short antisense compounds in Table 62 are chimeric oligonucleotides (“gapmers”) either 12 or 13 nucleotides in length, composed of a central “gap” segment consisting of ten 2′-deoxynucleotides, which are flanked on the 5′ side by a one-nucleoside “wing” and on the 3′ side by a two or one-nucleotide “wing”. […] All cytidine residues are 5-methylcytidines.
The short antisense compounds were analyzed for their effect on rat SGLT2 mRNA levels. Data are ranges taken from three experiments in which Male Sprague-Dawley rats (170-200 g) were dosed twice per week for three weeks with 450, 150 or 50 nmol/kg of either a 1-10-1 or 1-10-2 MOE gapmer given by intraperitoneal injection. Rats were sacrificed 48 hours following last administration and evaluated for SGLT2 mRNA levels in kidney. Target levels were determined by RT, real-time PCR as described by other examples herein. PCR results were normalized to an internal ISIS control.

rat SGLT2 mRNA [5] = assay: Rat SGLT2 mRNA levels in kidney, ISIS 379692 and ISIS 388625, Sprague-Dawley rats (Example 15, Table 70); type: in vivo; conditions: i.p. twice per week for three weeks
Experimental: The effect of ISIS 379692 1-10-1 MOE gapmer and ISIS 388625 MOE 2-8-2 gapmer (see Table 70) on rat SGLT2 mRNA levels in vivo. […] Rats were sacrificed 48 hours following last administration and evaluated for SGLT2 levels in kidney. Target levels were determined by RT, real-time PCR as described by other examples herein. PCR results were normalized to an internal ISIS control.

mouse SGLT2 mRNA [6] = assay: Mouse SGLT2 mRNA levels in kidney, 1-10-1 MOE gapmers, Balb/c mice (Example 14, Table 65); type: in vivo
Experimental: The short antisense compounds were analyzed for their effect on mouse SGLT2 mRNA levels. Data was taken from three experiments in which Male 6-week old Balb/c mice were dosed twice per week for two weeks with 450, 150, or 50 nmol/kg of one of the above 1-10-1 MOE gapmers given by intraperitoneal injection. Mice were sacrificed 48 hours following last administration and evaluated for SGLT2 mRNA levels in kidney. Target levels were determined by RT, real-time PCR as described by other examples herein. PCR results were normalized to an internal ISIS control.

ApoB mRNA = ApoB mRNA in liver of Balb/c mice, single i.p. dose 8, 4, 2 or 1 μmol/kg, with ED50 (Example 28, Table 92); type: in vivo, mouse; conditions: ApoB mRNA in liver, single i.p. administration
Experimental: The short antisense compounds tested were ISIS 387462 and ISIS 398296. Each dose group consisted of four animals. A 5-10-5 MOE gapmer was used for a control treatment. Mice were sacrificed approximately 48 hours following the final dose. Liver tissue was collected for RNA isolation, and blood was collected for serum chemistry analyses. ApoB mRNA levels were measured by real-time PCR as described herein. ApoB mRNA levels were normalized to RNA levels as determined by RIBOGREEN, and are presented in Table 92 as percent inhibition relative to ApoB mRNA levels in saline-treated control animals.
At the 8 umol/kg dose, ApoB inhibition by the short antisense compounds was greater than observed with a 5-10-5 MOE gapmer at an equivalent dose. […] Triglycerides were reduced at the highest dose.

[7] = 0.02 umol/kg i.p. twice per week for three weeks
[8] = 0.1 umol/kg i.p. twice per week for three weeks
[9] = 0.5 umol/kg i.p. twice per week for three weeks
[10] = 50 nmol/kg i.p. twice per week for three weeks
[11] = 150 nmol/kg i.p. twice per week for three weeks
[12] = 450 nmol/kg i.p. twice per week for three weeks
[13] = 50 nmol/kg i.p. twice per week for two weeks
[14] = 150 nmol/kg i.p. twice per week for two weeks
[15] = 450 nmol/kg i.p. twice per week for two weeks

Substance | % change in SGLT2 expression relative to saline (mouse SGLT2 mRNA [1]; [7]) [%] | % change in SGLT2 expression relative to saline (mouse SGLT2 mRNA [1]; [8]) [%] | % change in SGLT2 expression relative to saline (mouse SGLT2 mRNA [1]; [9]) [%] | % change in SGLT2 expression relative to saline (rat SGLT2 mRNA [3]) [%] | % change in SGLT2 expression relative to saline (rat SGLT2 mRNA [4]; [10]) [%] | % change in SGLT2 expression relative to saline (rat SGLT2 mRNA [4]; [11]) [%] | % change in SGLT2 expression relative to saline (rat SGLT2 mRNA [4]; [12]) [%] | % change in SGLT2 expression relative to saline (mouse SGLT2 mRNA [6]; [13]) [%] | % change in SGLT2 expression relative to saline (mouse SGLT2 mRNA [6]; [14]) [%] | % change in SGLT2 expression relative to saline (mouse SGLT2 mRNA [6]; [15]) [%] | further results
327161 (antisense eA*eG*e[5mC]*dT*dG*d[5mC]*dT*dG*dT*dA*d[5mC]*eA*eT*e[5mC]) [compound 327161] |  |  |  |  |  |  |  |  |  |  | percent reduction in GCGR mRNA (monkey GCGR mRNA; 25 nM): −19; percent reduction in GCGR mRNA (monkey GCGR mRNA; 50 nM): −33; percent reduction in GCGR mRNA (monkey GCGR mRNA; 100 nM): −55; percent reduction in GCGR mRNA (monkey GCGR mRNA; 200 nM): −54; percent reduction in GCGR mRNA (GCGR mRNA; 25 nM): −36; percent reduction in GCGR mRNA (GCGR mRNA; 50 nM): −30; percent reduction in GCGR mRNA (GCGR mRNA; 100 nM): −33; percent reduction in GCGR mRNA (GCGR mRNA; 200 nM): −64
ISIS 327161: GCGR; 3-10-3 MOE gapmer (antisense eA*eG*e[5mC]*dT*dG*d[5mC]*dT*dG*dT*dA*d[5mC]*eA*eT*e[5mC]) |  |  |  |  |  |  |  |  |  |  | GCGR mRNA (GCGR mRNA; HepG2 cells, 25, 50, 100 or 200 nM): reduced GCGR mRNA in a dose-dependent manner
ISIS 379692: SGLT2; 1-10-1 MOE gapmer (antisense eT*dG*dT*dT*d[5mC]*d[5mC]*dA*dG*d[5mC]*d[5mC]*d[5mC]*eA) | −55 | −75 | −85 | −85 | −80 | −85 | −90 | −52.5 | −70 | −80 | SGLT2 mRNA, percent change relative to saline treated animals (mouse SGLT2 mRNA [2]; 5 nmol/kg i.p. twice per week for three weeks): −7 percent change; SGLT2 mRNA, percent change relative to saline treated animals (mouse SGLT2 mRNA [2]; 25 nmol/kg i.p. twice per week for three weeks): −46 percent change; SGLT2 mRNA, percent change relative to saline treated animals (mouse SGLT2 mRNA [2]; 125 nmol/kg i.p. twice per week for three weeks): −58 percent change; % change in SGLT2 expression relative to saline (rat SGLT2 mRNA [5]; dose 3.125 umol/kg (head)): +30%; % change in SGLT2 expression relative to saline (rat SGLT2 mRNA [5]; dose 12.5 umol/kg (head)): −15%; % change in SGLT2 expression relative to saline (rat SGLT2 mRNA [5]; dose 50 umol/kg (head)): −65%; % change in SGLT2 expression relative to saline (rat SGLT2 mRNA [5]; dose 200 umol/kg (head)): −80%
ISIS 379699: SGLT2; GGCATGAGCTTC 1-10-1 MOE (antisense eG*dG*d[5mC]*dA*dT*dG*dA*dG*d[5mC]*dT*dT*e[5mC]) | −30 | −60 | −75 | −75 | −60 | −75 | −83 | −42.5 | −62.5 | −80 | 
ISIS 379702: targeted to SGLT2 (antisense eG*d[5mC]*dA*d[5mC]*dA*d[5mC]*dA*dG*d[5mC]*dT*dG*e[5mC]) | −40 | −65 | −70 | −25 |  |  |  | −52.5 | −72.5 | −75 | 
ISIS 398296: ApoB; GGTACATGGAAGTC 2-10-2 (6′S)-6′-methyl-Methyleneoxy BNA Unmodified Cytosines (antisense kG*kG*dT*dA*dC*dA*dT*dG*dG*dA*dA*dG*kT*kC) |  |  |  |  |  |  |  |  |  |  | ED50 (ApoB mRNA): 8.7 mg/kg
